A short description of data set [1]: Dynamic moisture sorption (DMS) assessment. The class given is physicochemical. Here is the method:
A dynamic moisture sorption (DMS) assessment (also known as a moisture sorption-desorption profile) was performed for samples of the crystalline naphthalene-1,5-disulfonic acid salts using a VTI atmospheric microbalance, SGA-100 system (VTI Corp., Hialeah, Fla. 33016). A sample size of approximately 10 mg was used and the humidity was set at the ambient value at the start of the analysis. A typical DMS analysis consisted of three scans: ambient to 2% relative humidity (RH), 2% RH to 90% RH, 90% RH to 5% RH at a scan rate of 5% RH/step. The mass was measured every two minutes and the RH was changed to the next value (+/−5% RH) when the mass of the sample was stable to within 0.01% for 5 consecutive points.

The nature of data set [2]: Differential scanning calorimetry (thermal stability). The class given is physicochemical. The note with it: DSC trace, 10° C./min. (In general: Differential scanning calorimetry records heat flow against a reference as temperature is scanned.)
Protocol: Differential scanning calorimetry (DSC) was performed using a TA Instruments Model Q-10 module with a Thermal Analyst controller. Data were collected and analyzed using TA Instruments Thermal Solutions software. A sample of about 1 mg was accurately weighed into an aluminum pan with lid. The sample was evaluated using a linear heating ramp of 10° C./min from ambient temperature to approximately 250° C. The DSC cell was purged with dry nitrogen during use.
For data set [3] the following is noted: Pre-Micronization.
The conditions of data set [4]: pH 4.5. As for the experimental part:
A solution was prepared with 0.1 mg/mL freebase equivalents (using a crystalline mononapadisylate salt prepared as described in Example 2) in 10 mM citrate buffered normal saline, pH 4.5. […] Less than 0.5% degradation was observed after storage for one month at 40° C./75% RH.

For data set [5] the following is noted: 6 weeks; −20° C. closed, 40° C./75% RH open and closed, 50° C. closed; all conditions. As for the experimental part:
Samples of the crystalline mononapadisylate salt of Example 2, about 200 mg each, were stored in multiple 3 mL borosilicate vials at −20° C. (closed container), 40° C./75% RH (open and closed container), and at 50° C. (closed container). At specific intervals, the entire contents of a representative vial was analyzed by the following HPLC method:
Column: Agilent Zorbox SB-C18, 4.6×250 mm, 5 μm; Mobile Phase A: 98% water, 2% ACN, 0.1% TFA; Mobile Phase B: 10% water, 90% ACN; 0.1% TFA; Flow rate: 1 mL/min; Injection Volume: 20 μL; Detector: 220 nm; Gradient-Time in minutes (% Mobile Phase B): 0.0 (10); 4.00 (20); 26.00 (28); 34.40 (100); 38.40 (100); 38.50 (10); and 45.00 (10). […] These stock solutions were diluted to 1 mg/mL in 10% ACN for injection onto the HPLC.

Turning to `O=C(CCN1CCC(OC(=O)Nc2ccccc2-c2ccccc2)CC1)NCCCCCNCc1ccc(O)cc1.O=S(=O)(O)c1cccc2c(S(=O)(=O)O)cccc12` [Crystalline Mononapadisylate Salt of Biphenyl-2-ylcarbamic Acid 1-2-[5-(4-Hydroxybenzylamino)pentylcarbamoyl]ethyl]piperidin-4-yl Ester], in data set [1] (DMS trace), the “sorption/desorption profile and hygroscopicity” value is given as “reversible sorption/desorption profile with low hygroscopicity”. This molecule also gave a weight gain in data set [1] (exposed to 2-90% RH) of 4.5%. Moreover, in data set [1] (humidity range of 40-70% RH), the weight gain is 0.7%. In addition, the weight gain in data set [1] (humidity range of 40-75% RH) worked out at 0.8%. Also, the weight gain result in data set [1] (humidity range of 40-75% RH, listed as crystalline mononapadisylate salt of the compound of formula I) is listed as “less than 0.8%”. Besides, in data set [2], the “thermal decomposition temperature (no thermal decomposition below)” value was at least 225 °C. Moreover, in data set [3], the “particle size D (v, 0.1)” value came out at 2.5 μm; the “particle size D (v, 0.5)” value was determined as 9.4 μm; the “particle size D (v, 0.9)” value came to 22.1 μm. In addition, the degradation in solution result in data set [4] (0.1 mg/mL freebase equivalents in 10 mM citrate buffered normal saline, one month at 40° C./75% RH) is listed as “Less than 0.5%”. In addition, the solubility entry in data set [4] (10 mM citrate buffered normal saline) was “approximately 0.4 mg/mL”. Moreover, in data set [5], the “change in chemical purity (HPLC)” value was “no detectable change” and the “change in the appearance of the material” value was “no observable change”.

For the origin of these results see patent US20060205949A1, “Crystalline forms of a biphenyl compound” (THERAVANCE, INC., priority 2005, published 2006).
